Assay results as given in patent US20060223841A1 (priority 2003, published 2006).

Key:
[1] = Stability of ratio of the mixture of desloratadine polymorphic forms on storage (XRPD); assay type: physicochemical
Excerpt: Copper radiation of 1.5418 Å was used.
In all cases samples were packed in polyethylene and store above conditions.

[2] = Stability under grinding by hand in mortar and pestle (XRD); details: grinding by hand in mortar and pestle for one minute
[3] = Solubility of desloratadine; assay type: physicochemical
[4] = 25° C., 60% RH, 1 month (4 weeks)
[5] = 25° C., 60% RH, 2 months (8 weeks)
[6] = 25° C., 60% RH, 3 months (12 weeks)
[7] = 40° C., 75% RH, 1 month (4 weeks)
[8] = 40° C., 75% RH, 2 months (8 weeks)
[9] = 25° C., 60% RH, 6 months (24 weeks)
[10] = 40° C., 75% RH, 3 months (12 weeks)
[11] = 40° C., 75% RH, 6 months (24 weeks)

| SMILES | Form 1 (%) ([1]; 25° C., 60% RH, 0 week) | Form 2 (%) ([1]; 25° C., 60% RH, 0 week) | Form 1 (%) [1, 4] [%] | Form 2 (%) [1, 4] [%] | Form 1 (%) ([1]; 25° C., 60% RH, 1 week) | Form 2 (%) ([1]; 25° C., 60% RH, 1 week) | Form 1 (%) [1, 5] [%] | Form 2 (%) [1, 5] [%] | Form 1 (%) ([1]; 25° C., 60% RH, 2 weeks) | Form 2 (%) ([1]; 25° C., 60% RH, 2 weeks) | Form 1 (%) [1, 6] [%] | Form 2 (%) [1, 6] [%] | Form 1 (%) ([1]; 40° C., 75% RH, 0 week) | Form 2 (%) ([1]; 40° C., 75% RH, 0 week) | Form 1 (%) [1, 7] [%] | Form 2 (%) [1, 7] [%] | Form 1 (%) ([1]; 40° C., 75% RH, 1 week) | Form 2 (%) ([1]; 40° C., 75% RH, 1 week) | Form 1 (%) [1, 8] [%] | change in the XRD pattern after grinding [2] | further results |
| --- | --- | --- | --- | --- | --- | --- | --- | --- | --- | --- | --- | --- | --- | --- | --- | --- | --- | --- | --- | --- | --- |
| Clc1ccc2c(c1)CCc1cccnc1C2=C1CCNCC1 [Example 1 of Stability Tests, desloratadine] | 57 | 43 | 55 | 45 | 59 | 41 | 63 | 37 | 53 | 47 | 52 | 48 | 57 | 43 | 50 | 50 | 46 | 54 | 39 |  | Form 2 (%) [1, 8]: 61%; Form 1 (%) ([1]; 40° C., 75% RH, 2 weeks): 43%; Form 2 (%) ([1]; 40° C., 75% RH, 2 weeks): 57% |
| Clc1ccc2c(c1)CCc1cccnc1C2=C1CCNCC1 [Form II, desloratadine, reference compound] |  |  |  |  |  |  |  |  |  |  |  |  |  |  |  |  |  |  |  | stable |  |
| Clc1ccc2c(c1)CCc1cccnc1C2=C1CCNCC1 [Form I, desloratadine, reference compound] |  |  |  |  |  |  |  |  |  |  |  |  |  |  |  |  |  |  |  | stable |  |
| Clc1ccc2c(c1)CCc1cccnc1C2=C1CCNCC1 [84:16, desloratadine] |  |  |  |  |  |  |  |  |  |  |  |  |  |  |  |  |  |  |  | do not show any substantial change |  |
| Clc1ccc2c(c1)CCc1cccnc1C2=C1CCNCC1 [desloratadine, 8-chloro-6,11-dihydro-11-(4-piperidylidene)-5H-benzo[5,6] cyclohepta[1,2-b]pyridine] |  |  |  |  |  |  |  |  |  |  |  |  |  |  |  |  |  |  |  |  | solubility [3]: very low |
| Clc1ccc2c(c1)CCc1cccnc1C2=C1CCNCC1 [75:25, desloratadine] |  |  |  |  |  |  |  |  |  |  |  |  |  |  |  |  |  |  |  | do not show any substantial change |  |
| Clc1ccc2c(c1)CCc1cccnc1C2=C1CCNCC1 [Example 4 of Stability Tests, desloratadine] | 76 | 24 | 82 | 18 | 87 | 13 | 86 | 14 | 80 | 20 | 81 | 19 | 76 | 24 | 88 | 12 | 76 | 24 | 85 |  | Form 1 (%) [1, 9]: 84%; Form 2 (%) [1, 9]: 16%; Form 2 (%) [1, 8]: 15%; Form 1 (%) ([1]; 40° C., 75% RH, 2 weeks): 82%; Form 2 (%) ([1]; 40° C., 75% RH, 2 weeks): 18%; Form 1 (%) [1, 10]: 82%; Form 2 (%) [1, 10]: 18%; Form 1 (%) [1, 11]: 82%; Form 2 (%) [1, 11]: 18% |
| Clc1ccc2c(c1)CCc1cccnc1C2=C1CCNCC1 [Example 3 of Stability Tests, desloratadine] | 74 | 26 | 79 | 21 | 79 | 21 | 75 | 25 | 74 | 26 | 74 | 26 | 74 | 26 | 78 | 22 | 77 | 23 | 78 |  | Form 1 (%) [1, 9]: 77%; Form 2 (%) [1, 9]: 23%; Form 2 (%) [1, 8]: 22%; Form 1 (%) ([1]; 40° C., 75% RH, 2 weeks): 81%; Form 2 (%) ([1]; 40° C., 75% RH, 2 weeks): 19%; Form 1 (%) [1, 10]: 75%; Form 2 (%) [1, 10]: 25%; Form 1 (%) [1, 11]: 75%; Form 2 (%) [1, 11]: 25% |
| Clc1ccc2c(c1)CCc1cccnc1C2=C1CCNCC1 [Example 2 of Stability Tests, desloratadine] | 62 | 38 | 66 | 34 | 65 | 35 | 67 | 33 | 61 | 39 | 66 | 34 | 62 | 38 | 65 | 35 | 63 | 37 | 65 |  | Form 2 (%) [1, 8]: 35%; Form 1 (%) ([1]; 40° C., 75% RH, 2 weeks): 64%; Form 2 (%) ([1]; 40° C., 75% RH, 2 weeks): 36% |
| Clc1ccc2c(c1)CCc1cccnc1C2=C1CCNCC1 [25:75, desloratadine] |  |  |  |  |  |  |  |  |  |  |  |  |  |  |  |  |  |  |  | do not show any substantial change |  |
| Clc1ccc2c(c1)CCc1cccnc1C2=C1CCNCC1 [50:50, desloratadine] |  |  |  |  |  |  |  |  |  |  |  |  |  |  |  |  |  |  |  | do not show any substantial change |  |
